Values of other authors, collected in PMC5657425 (Pediatric blood & cancer, 2016).

How the values were obtained:
[1] = test system: PPTP solid tumor xenografts
[2] = test system: well-differentiated or dedifferentiated liposarcoma
Rh18 xenograft = details: single agent

## CCOc1cc(C(C)(C)C)ccc1C1=N[C@@](C)(c2ccc(Cl)cc2)[C@@](C)(c2ccc(Cl)cc2)N1C(=O)N1CCN(CCCS(C)(=O)=O)CC1 [RG7112]
[1]; osteosarcoma panel
  response of the osteosarcoma panel: no response
[1]; prior PPTP testing
  objective regressions in twenty six solid tumor models with wild-type TP53: five
[2]
  adverse effect in phase 1 and 2 evaluations: thrombocytopenia
[2]; phase 2, well-differentiated or dedifferentiated liposarcoma
  stable disease among 20 patients treated: 14

## COc1cc(C(=O)O)ccc1NC(=O)[C@@H]1N[C@@H](CC(C)(C)C)[C@](C#N)(c2ccc(Cl)cc2F)[C@H]1c1cccc(Cl)c1F [RG7388]
Rh18 xenograft
  response of Rh18: unresponsive
